Assay results from publication PMC9737772, “Synthesis and Anti-Inflammatory Activity of 1-Methylhydantoin Cinnamoyl Imides” (Molecules, 2022).

Experiments:
[1] = biological target: T1, ovine cyclooxygenase-1 (COX-1) (Ovis aries, UniProt P05979); assay: In vitro COX inhibition assay (enzyme immunoassay kit), COX-1; format: biochemical; conditions: ovine COX-1, enzyme immunoassay kit
T1 construct: purchased Cayman Chemical 560131
T1 sequence (P05979 25-600): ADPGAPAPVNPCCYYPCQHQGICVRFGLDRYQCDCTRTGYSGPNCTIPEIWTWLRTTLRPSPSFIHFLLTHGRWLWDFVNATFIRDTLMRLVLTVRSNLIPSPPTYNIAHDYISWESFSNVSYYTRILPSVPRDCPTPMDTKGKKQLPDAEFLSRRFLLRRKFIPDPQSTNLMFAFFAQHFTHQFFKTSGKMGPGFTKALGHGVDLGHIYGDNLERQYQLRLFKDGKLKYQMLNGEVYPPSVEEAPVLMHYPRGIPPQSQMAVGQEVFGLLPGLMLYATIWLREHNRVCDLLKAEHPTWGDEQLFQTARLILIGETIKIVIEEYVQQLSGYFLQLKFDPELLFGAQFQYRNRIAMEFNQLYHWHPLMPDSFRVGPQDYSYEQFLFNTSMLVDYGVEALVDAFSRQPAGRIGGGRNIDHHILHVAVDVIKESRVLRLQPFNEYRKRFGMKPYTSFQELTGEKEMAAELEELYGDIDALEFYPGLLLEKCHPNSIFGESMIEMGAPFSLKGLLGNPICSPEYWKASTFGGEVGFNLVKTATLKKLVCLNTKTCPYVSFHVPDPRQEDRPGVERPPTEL
Protocol: The inhibition ability of 1-methylhydantoin cinnamic imides to ovine cyclooxygenase-1 (COX-1) and cyclooxygenase-2 (COX-2) was determined using an enzyme immunoassay kit. […] The Cell Counting Kit-8 (CCK-8) method was used to detect the cytotoxicity of the five target compounds (1–5) on lipopolysaccharide (LPS)-induced RAW264.7 cells. When the concentrations of compounds 1, 3 and 5 are lower than 20 μM, and when the concentrations of compounds 2 and 4 are lower than 80 μM, the survival rate of RAW264.7 cells is more than 95%, which has no obvious damage to cell survival and can be used for subsequent in vitro anti-inflammatory activity experiments to provide the basis.
The inhibition ability of ovine COX-1 and COX-2 was determined using an enzyme immunoassay kit (560131, Cayman Chemical, Ann Arbor, MI, USA) following the manufacturer’s instructions.

[2] = test system: xylene-induced ear edema in mice; assay: Xylene-induced ear edema in mice; format: in vivo, Kunming mice; conditions: for Degree of Edema: 30 μL xylene, 30 min, mean ± SD, n = 6; for Inhibition of ear swelling: xylene-induced ear edema
Protocol: To evaluate the differences in anti-inflammatory effects of the five compounds, the in vivo anti-inflammatory experiment was conducted based on the acute inflammation model of ear swelling induced by xylene. Under the inflammatory effect of 30 μL of xylene, the degree of ear swelling in the blank group and each experimental group was different. […] With an increase in dose the degree of ear swelling decreased, and the effect of ear swelling inhibition was more significant at high dose (100 mg/kg). Under the action of drugs, the five target compounds (1–5) have significant inhibitory effects on ear swelling (Figure 6).
Adult male Kunming mice (18–20 g) were bought from Liaoning Changsheng Biotechnology Co., Ltd. (Shenyang, China, License No. SCXK (Liao) 2015-0001). The breeding is carried out under standard conditions without pathogens (constant room temperature 20–22 °C, 55 ± 5% humidity, 12 h light–dark cycle and free access to food and water). The research protocol has been approved by the Animal Experiment Ethics Committee of the School of Pharmacy of Jilin University (20190048). All experimental operations follow the principles of laboratory animal care, and all animal experiments are conducted in accordance with the Guide for the Care and Use of Laboratory Animals (released by the National Research Council).
In this experiment, Kunming mice were randomly divided into two groups. One group was given 5% sodium carboxymethyl cellulose solution as the blank group, and the other group was given different concentrations of the target compound as the experimental group (high, medium and low doses); continuous intragastric administration was two days and the volume of intragastric administration was 0.2 mL. One hour after the last administration, 30 μL of xylene was evenly smeared on both sides of the mouse’s right ear. After 30 min, the mouse’s right ear was obviously red and swollen and the capillary congestion was severe. Cervical vertebrae were dislocated and sacrificed. The ears on both sides were quickly cut off, an 8 mm ear punch was used to punch holes at the same position on the ears on both sides and they were immediately weighed to calculate the weight difference.
The formula for the difference in ear weight is as follows:(2) D=Wr−Wl where Wr was the weight of the right ear and Wl was the weight of the left ear.
The formula for the inhibition rate of ear swelling is as follows:(3) Inhibition %=Dc−Dt/Dc×100% where Dc was the extent of ear edema of the control group and Dt was the extent of ear edema of the treatment group.

[3] = 25 mg/kg intragastric for two days
[4] = 50 mg/kg intragastric for two days
[5] = 100 mg/kg (high dose) intragastric
[6] = 100 mg/kg intragastric for two days

| IC50 [1] | melting point | SMILES | Degree of Edema [2, 3] | Inhibition of ear swelling ([2]; 25 mg/kg intragastric) | Degree of Edema [2, 4] | Inhibition of ear swelling ([2]; 50 mg/kg intragastric) | Inhibition of ear swelling [2, 5] | Degree of Edema [2, 6] |
| --- | --- | --- | --- | --- | --- | --- | --- | --- |
| 56 ± 6 µM | 128.9 to 129.8 °C | CN1CC(=O)N(C(=O)/C=C/c2ccco2)C1=O [Compound 2, (E)-3-(3-(furan-2-yl)acryloyl)-1-methylimidazolidine-2,4-dione] | 8.68 ± 0.79 mg | 29.14% | 7.96 ± 0.23 mg | 35.02% | 49.47% | 6.19 ± 1.13 mg |
| 37 ± 4 µM | 148.9 to 149.6 °C | CC(=O)Oc1ccc(/C=C/C(=O)N2C(=O)CN(C)C2=O)cc1 [Compound 4, (E)-4-(3-(3-methyl-2,5-dioxoimidazolidin-1-yl)-3-oxoprop-1-en-1-yl)phenyl acetate] | 11.03 ± 0.32 mg | 9.96% | 8.79 ± 0.76 mg | 28.24% | 40.16% | 7.33 ± 0.51 mg |
